Assay results from article PMC4324968, “High-Affinity Accumulation of a Maytansinoid in Cells via Weak Tubulin Interaction” (PLoS ONE, 2015).

Assays:
[1] = molecular target: T1, tubulin (αβ-heterodimer, bovine brain; maytansine site on β-tubulin); test: equilibrium radioligand binding of 3H-S-methyl DM1 to tubulin-loaded liposomes (apparent Kd); parameters: species or system Bos taurus
T1 construct: with α-tubulin (αβ-heterodimer)

[2] = system: T2, tubulin (microtubule-assembled, in MCF7 cells); test: 3H-paclitaxel equilibrium binding to MCF7 cells, Scatchard; assay type: cell-based
T2 construct: endogenous cellular tubulin in MCF7 cells; with αβ-heterodimer in microtubules

Structure (SMILES)	Kd [1]	Kd [2]
COc1cc2cc(c1Cl)N(C)C(=O)C[C@H](OC(=O)[C@H](C)N(C)C(=O)CCSC)[C@]1(C)O[C@H]1[C@H](C)[C@@H]1C[C@@](O)(NC(=O)O1)[C@H](OC)/C=C/C=C(\C)C2 [S-methyl DM1]	21.5 ± 0.07 nM	
CC(=O)O[C@H]1C(=O)[C@@]2(C)[C@H]([C@H](OC(=O)c3ccccc3)[C@]3(O)C[C@H](OC(=O)[C@H](O)[C@@H](NC(=O)c4ccccc4)c4ccccc4)C(C)=C1C3(C)C)[C@]1(OC(C)=O)CO[C@@H]1C[C@@H]2O [paclitaxel]		60 ± 10 nM
